2 molecules from article PMC3534050, “Simultaneous Single-Sample Determination of NMNAT Isozyme Activities in Mouse Tissues” (PLoS ONE, 2012) can be followed below.

SMILES strings stand for the structures. Where two headings read alike, the source gives them in different places.

In this assay the test system is T1, Wld^S.
T1 construct: gene Nmnat1; full-length Wld^S ORF (1119 bp): N-terminal Ube4b fragment fused to NMNAT1; predicted mass 44001 Da; with Ubiquitin conjugation factor E4 B
The assay can be described thus: C18-HPLC of NAD formed, nonlinear fit. It is filed as biochemical, Mus musculus. The note with it: HEPES/KOH pH 7.5, MgCl2, 37°C. From the text:
C18-HPLC of NAD formed, nonlinear fit on Wld^S

Take `Nc1ncnc2c1ncn2[C@@H]1O[C@H](COP(=O)(O)OP(=O)(O)OP(=O)(O)O)[C@@H](O)[C@H]1O` [ATP]: under “read-out: ATP / K m, co-substrate NMN, ATP 25–175 µM”, the Km was determined as 29.6 ± 1.8 µM.
Take `NC(=O)c1ccc[n+]([C@@H]2O[C@H](COP(=O)(O)O)[C@@H](O)[C@H]2O)c1` [NMN]: the Km (co-substrate ATP, NMN 5–100 µM, read-out: NMN / K m) was determined as 32.2 ± 1.2 µM.
